{"source": "patent US20260285850A1", "about": "“SUBSTITUTED OXAZOLIDINONES AND IMIDAZOLINONES AS HERBICIDES” (FMC CORPORATION, priority 2023, published 2026)", "format_in_all_cases": "in vivo", "key": {"[1]": {"tested_on": "palmer (palmer amaranth, palmer pigweed, Amaranthus palmeri)", "experiment": "Test A preemergence soil spray, visual injury rating 0-100", "conditions": "10 days", "in_short": "(§1)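 Loam-sand pots got test material in surfactant-containing solvent, either as a directed soil spray before emergence or on plants at the one- to two-leaf stage. Visual injury (0-100) was read after ten greenhouse days.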"}, "[2]": {"tested_on": "blackgrass (Alopecurus myosuroides)", "experiment": "Test A preemergence soil spray, visual injury rating 0-100", "conditions": "10 days", "in_short": "as §1"}, "[3]": {"tested_on": "oat, wild (wild oat, Avena fatua)", "experiment": "Test A preemergence soil spray, visual injury rating 0-100", "conditions": "10 days", "in_short": "as §1"}, "[4]": {"tested_on": "corn (Zea mays)", "experiment": "Test A preemergence soil spray, visual injury rating 0-100", "conditions": "10 days", "in_short": "as §1"}, "[5]": {"tested_on": "ryegrass, Italian (italian ryegrass, Lolium multiflorum)", "experiment": "Test A preemergence soil spray, visual injury rating 0-100", "conditions": "10 days", "in_short": "as §1"}, "[6]": {"tested_on": "green foxtail (Setaria viridis)", "experiment": "Test A preemergence soil spray, visual injury rating 0-100", "conditions": "10 days", "in_short": "as §1"}, "[7]": {"tested_on": "ragweed (common ragweed, Ambrosia artemisiifolia)", "experiment": "Test A preemergence soil spray, visual injury rating 0-100", "conditions": "10 days", "in_short": "as §1"}, "[8]": {"tested_on": "wheat (Triticum aestivum)", "experiment": "Test A preemergence soil spray, visual injury rating 0-100", "conditions": "10 days", "in_short": "as §1"}, "[9]": {"tested_on": "soybean (Glycine max)", "experiment": "Test A preemergence soil spray, visual injury rating 0-100", "conditions": "10 days", "in_short": "as §1"}, "[10]": {"tested_on": "kochia (Bassia scoparia)", "experiment": "Test A preemergence soil spray, visual injury rating 0-100", "conditions": "10 days", "in_short": "as §1"}, "[11]": {"tested_on": "barnyardgrass (Echinochloa crus-galli)", "experiment": "Test A preemergence soil spray, visual injury rating 0-100", "conditions": "10 days", "in_short": "as §1"}, "[12]": {"tested_on": "barnyardgrass (Echinochloa crusgalli)", "experiment": "Test B flooded paddy test, visual plant response rating 0-100", "conditions": "250 g ai/ha, Flood, applied to paddy water, evaluated after 13 days", "in_short": "(§2)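 Greenhouse, 13 d. Seedlings at 2-leaf stage, pots flooded to 3 cm, compound delivered into floodwater, water level held constant. Evaluated visually relative to controls.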"}, "[13]": {"tested_on": "rice (Oryza sativa)", "experiment": "Test B flooded paddy test, visual plant response rating 0-100", "conditions": "250 g ai/ha, Flood, applied to paddy water, evaluated after 13 days", "in_short": "as §2"}, "[14]": {"tested_on": "sedge, umbrella (small-flower umbrella sedge, Cyperus difformis)", "experiment": "Test B flooded paddy test, visual plant response rating 0-100", "conditions": "250 g ai/ha, Flood, applied to paddy water, evaluated after 13 days", "in_short": "as §2"}, "[15]": {"tested_on": "ducksalad (Heteranthera limosa)", "experiment": "Test B flooded paddy test, visual plant response rating 0-100", "conditions": "250 g ai/ha, Flood, applied to paddy water, evaluated after 13 days", "in_short": "as §2"}, "[16]": {"tested_on": "palmer (palmer amaranth, palmer pigweed, Amaranthus palmeri)", "experiment": "Test A postemergence application, visual injury rating 0-100", "in_short": "as §1"}, "[17]": {"tested_on": "galium (catchweed bedstraw, Galium aparine)", "experiment": "Test A postemergence application, visual injury rating 0-100", "in_short": "as §1"}, "[18]": {"tested_on": "blackgrass (Alopecurus myosuroides)", "experiment": "Test A postemergence application, visual injury rating 0-100", "in_short": "as §1"}, "[19]": {"tested_on": "oat, wild (wild oat, Avena fatua)", "experiment": "Test A postemergence application, visual injury rating 0-100", "in_short": "as §1"}, "[20]": {"tested_on": "corn (Zea mays)", "experiment": "Test A postemergence application, visual injury rating 0-100", "in_short": "as §1"}, "[21]": {"tested_on": "ryegrass, Italian (italian ryegrass, Lolium multiflorum)", "experiment": "Test A postemergence application, visual injury rating 0-100", "in_short": "as §1"}, "[22]": {"tested_on": "green foxtail (Setaria viridis)", "experiment": "Test A postemergence application, visual injury rating 0-100", "in_short": "as §1"}, "[23]": {"tested_on": "horseweed (Erigeron canadensis)", "experiment": "Test A postemergence application, visual injury rating 0-100", "in_short": "as §1"}, "[24]": {"tested_on": "ragweed (common ragweed, Ambrosia artemisiifolia)", "experiment": "Test A postemergence application, visual injury rating 0-100", "in_short": "as §1"}, "[25]": {"tested_on": "wheat (Triticum aestivum)", "experiment": "Test A postemergence application, visual injury rating 0-100", "in_short": "as §1"}, "[26]": {"tested_on": "soybean (Glycine max)", "experiment": "Test A postemergence application, visual injury rating 0-100", "in_short": "as §1"}, "[27]": {"tested_on": "kochia (Bassia scoparia)", "experiment": "Test A postemergence application, visual injury rating 0-100", "in_short": "as §1"}, "[28]": {"tested_on": "barnyardgrass (Echinochloa crus-galli)", "experiment": "Test A postemergence application, visual injury rating 0-100", "in_short": "as §1"}, "[29]": {"conditions": "62 g ai/ha, 0 = no effect, 100 = complete control"}, "[30]": {"conditions": "62 g ai/ha, postemergence, 10 days, 0 = no effect, 100 = complete control"}, "[31]": {"conditions": "Postemergence, 16 g ai/ha, greenhouse 10 days, 0 no effect, 100 complete control"}}, "data": [{"compound": "C=CC1(C(=O)NC2CC(C(=O)OC)C2)CN(c2cc(F)cc(F)c2)C(=O)O1", "note": "(stereo not shown) [Compound 174]", "values": [{"measurement": "Pigweed, Palmer plant response rating", "setting": "[1]; 16 g ai/ha, 0 to 100 scale", "result": 0}, {"measurement": "Pigweed, Palmer plant response rating (0-100)", "setting": "[1]; [29]", "result": 0}, {"measurement": "Blackgrass plant response rating", "setting": "[2]; 16 g ai/ha, 0 to 100 scale", "result": 0}, {"measurement": "Blackgrass plant response rating (0-100)", "setting": "[2]; [29]", "result": 0}, {"measurement": "Oat, Wild plant response rating", "setting": "[3]; 16 g ai/ha, 0 to 100 scale", "result": 0}, {"measurement": "Oat, Wild plant response rating (0-100)", "setting": "[3]; [29]", "result": 0}, {"measurement": "Corn plant response rating", "setting": "[4]; 16 g ai/ha, 0 to 100 scale", "result": 0}, {"measurement": "Corn plant response rating (0-100)", "setting": "[4]; [29]", "result": 0}, {"measurement": "Ryegrass, Italian plant response rating", "setting": "[5]; 16 g ai/ha, 0 to 100 scale", "result": 0}, {"measurement": "Ryegrass, Italian plant response rating (0-100)", "setting": "[5]; [29]", "result": 0}, {"measurement": "Foxtail, Green plant response rating", "setting": "[6]; 16 g ai/ha, 0 to 100 scale", "result": 0}, {"measurement": "Foxtail, Green plant response rating (0-100)", "setting": "[6]; [29]", "result": 0}, {"measurement": "Ragweed plant response rating", "setting": "[7]; 16 g ai/ha, 0 to 100 scale", "result": 0}, {"measurement": "Ragweed plant response rating (0-100)", "setting": "[7]; [29]", "result": 0}, {"measurement": "Wheat plant response rating", "setting": "[8]; 16 g ai/ha, 0 to 100 scale", "result": 0}, {"measurement": "Wheat plant response rating (0-100)", "setting": "[8]; [29]", "result": 0}, {"measurement": "Soybean plant response rating", "setting": "[9]; 16 g ai/ha, 0 to 100 scale", "result": 0}, {"measurement": "Soybean plant response rating (0-100)", "setting": "[9]; [29]", "result": 0}, {"measurement": "Kochia plant response rating", "setting": "[10]; 16 g ai/ha, 0 to 100 scale", "result": 0}, {"measurement": "Kochia plant response rating (0-100)", "setting": "[10]; [29]", "result": 0}, {"measurement": "Barnyardgrass plant response rating", "setting": "[11]; 16 g ai/ha, 0 to 100 scale", "result": 0}, {"measurement": "Barnyardgrass plant response rating (0-100)", "setting": "[11]; [29]", "result": 0}, {"measurement": "Plant response rating, Barnyardgrass (0 to 100 scale, 0 is no effect and 100 is complete control)", "setting": "[12]", "result": 0}, {"measurement": "Plant response rating, Rice (0 to 100 scale, 0 is no effect and 100 is complete control)", "setting": "[13]", "result": 0}, {"measurement": "Plant response rating, Sedge, Umbrella (0 to 100 scale, 0 is no effect and 100 is complete control)", "setting": "[14]", "result": 0}, {"measurement": "Plant response rating, Ducksalad (0 to 100 scale, 0 is no effect and 100 is complete control)", "setting": "[15]", "result": 0}, {"measurement": "Pigweed, Palmer plant response rating (0-100)", "setting": "[16]; [30]", "result": 0}, {"measurement": "Pigweed, Palmer plant response rating (0 to 100 scale)", "setting": "[16]; [31]", "result": 0}, {"measurement": "Galium plant response rating (0-100)", "setting": "[17]; [30]", "result": 0}, {"measurement": "Galium plant response rating (0 to 100 scale)", "setting": "[17]; [31]", "result": 0}, {"measurement": "Blackgrass plant response rating (0-100)", "setting": "[18]; [30]", "result": 0}, {"measurement": "Blackgrass plant response rating (0 to 100 scale)", "setting": "[18]; [31]", "result": 0}, {"measurement": "Oat, Wild plant response rating (0-100)", "setting": "[19]; [30]", "result": 0}, {"measurement": "Oat, Wild plant response rating (0 to 100 scale)", "setting": "[19]; [31]", "result": 0}, {"measurement": "Corn plant response rating (0-100)", "setting": "[20]; [30]", "result": 0}, {"measurement": "Corn plant response rating (0 to 100 scale)", "setting": "[20]; [31]", "result": 0}, {"measurement": "Ryegrass, Italian plant response rating (0-100)", "setting": "[21]; [30]", "result": 0}, {"measurement": "Ryegrass, Italian plant response rating (0 to 100 scale)", "setting": "[21]; [31]", "result": 0}, {"measurement": "Foxtail, Green plant response rating (0-100)", "setting": "[22]; [30]", "result": 0}, {"measurement": "Foxtail, Green plant response rating (0 to 100 scale)", "setting": "[22]; [31]", "result": 0}, {"measurement": "Horseweed plant response rating (0-100)", "setting": "[23]; [30]", "result": 0}, {"measurement": "Horseweed plant response rating (0 to 100 scale)", "setting": "[23]; [31]", "result": 0}, {"measurement": "Ragweed plant response rating (0-100)", "setting": "[24]; [30]", "result": 0}, {"measurement": "Ragweed plant response rating (0 to 100 scale)", "setting": "[24]; [31]", "result": 0}, {"measurement": "Wheat plant response rating (0-100)", "setting": "[25]; [30]", "result": 0}, {"measurement": "Wheat plant response rating (0 to 100 scale)", "setting": "[25]; [31]", "result": 0}, {"measurement": "Soybean plant response rating (0-100)", "setting": "[26]; [30]", "result": 0}, {"measurement": "Soybean plant response rating (0 to 100 scale)", "setting": "[26]; [31]", "result": 0}, {"measurement": "Kochia plant response rating (0-100)", "setting": "[27]; [30]", "result": 0}, {"measurement": "Kochia plant response rating (0 to 100 scale)", "setting": "[27]; [31]", "result": 0}, {"measurement": "Barnyardgrass plant response rating (0-100)", "setting": "[28]; [30]", "result": 20}, {"measurement": "Barnyardgrass plant response rating (0 to 100 scale)", "setting": "[28]; [31]", "result": 10}]}]}
